According to patent US12612412B2, “Antiviral heterocyclic compounds” (Enanta Pharmaceuticals, Inc., priority 2021, dated 2026):

Tested on: genotype A, "Long" strain RSV
Assay: RSV-A assay (CPE protection in Hep-2 cells, ATPlite readout)
Format: cell-based, Human respiratory syncytial virus (HRSV)
Conditions: human respiratory syncytial virus, RSV-A Long strain, MOI 0.1, CPE protection, read-out: Human RSV-A (“Long”) EC50
Source text: Hep-2 cells, (originally derived from tumors grown in irradiated-cortisonised weanling rats that had been injected with epidermoid carcinoma tissue from the larynx of a person, but later found to be indistinguishable from HeLa cells by PCR DNA analysis), were used for the culturing of genotype A, “Long” strain RSV. Flasks were inoculated with RSV and viral stocks were collected once cytopathic effect (CPE) was greater than 90%. Viral stocks in 25% sucrose media were snap frozen using liquid nitrogen to increase viral stability. Viral stock titers were quantified by tissue culture infectious dose 50% (TCID50) using 8,000 cells per well and 3-fold viral dilutions across a 96-well plate, cultured for 4 days. Viral stock titers were also quantified by a plaque forming unit assay, as described elsewhere.
Following extensive parameter testing, the final assay is run as follows: Hep-2 cells are seeded into the inner 60 wells of a 96-well plate at 8,000 cells per well in a volume of 50 μL using Growth Media (DMEM without phenol red, 1% L-Glut, 1% Penn/Strep, 1% nonessential amino acids, 10% heat-inactivated FBS). 2-fold serial dilutions of control and test compounds are added to the wells in duplicate in a total volume of 25 μL. Viral stock is then added to the wells at a multiplicity of infection (MOI) of 0.1 in a volume of 25 μL, bringing the total volume of each well to 100 μL. The MOI is calculated using the PFU/mL, or TCID50 if unavailable. Each 96-well plate has a control column of 6 wells with cells and virus but no compound (negative control, max CPE), a column with cells but no compound or virus (positive control, minimum CPE), and a column with no cells or virus or compound (background plate/reagent control). The control wells with cells but no virus are given an additional 25 μL of growth media containing an equal quantity of sucrose as those wells receiving the viral stock in order to keep consistent in media and volume conditions. The outer wells of the plate are filled with 125 μL of moat media (DMEM, 1% Penn/Strep) to act as a thermal and evaporative moat around the test wells. Following a 5-day incubation period, the plates are read using ATPlite (50 uL added per well), which quantifies the amount of ATP (a measure of cell health) present in each well. Assay plates are read using the Envision luminometer. […] EC50 ranges are as follows: A<0.2 μM; B>0.2 μM.

EC50 [µM] | Structure (SMILES)
< 0.2 | Cc1cc2cc(C(=O)NC[C@](O)(c3cc4c(c(-c5ccc(F)cc5)n3)OC[C@]4(C)C(N)=O)C(F)(F)F)cc(OC3CC3)c2nc1Cl [Example 1075]
< 0.2 | COc1cc(C(=O)NC[C@](O)(c2cc3c(c(-c4cc(F)cc(F)c4F)n2)OC[C@]3(C)C(N)=O)C(F)(F)F)cc2cn(C3CC3)nc12 [Example 1247]
> 0.2 | COc1cc(C(=O)NC[C@@](O)(c2cc3c(c(-c4ccc(C5CC5)cc4)n2)OC[C@]3(C)C(N)=O)C(F)(F)F)cc2cn(C3CC3)nc12 [Example 892]
< 0.2 | COc1cc(C(=O)NC[C@](O)(c2cc3c(c(-c4ccc(F)c(Cl)c4)n2)OC[C@]3(C)C(N)=O)C(F)(F)F)cc2cc(C)c(Cl)nc12 [Example 1071]
< 0.2 | COc1cc(C(=O)NC[C@](O)(c2cc3c(c(-c4cc(Cl)c(F)cc4F)n2)OC[C@]3(C)C(N)=O)C2CC2)cc2sc(C3CC3)nc12 [Example 1132]
< 0.2 | COc1cc(C(=O)NC[C@](O)(c2cc3c(c(-c4cccc(Cl)c4Cl)n2)OC[C@]3(C)C(N)=O)C2CC2)cc2cn(C3CC3)nc12 [Example 1286]
< 0.2 | Cc1cnc2c(OC(F)F)cc(C(=O)NC[C@](O)(c3cc4c(c(-c5cccc(F)c5Cl)n3)OC[C@]4(C)C(N)=O)C3CC3)cc2c1 [Example 1211]
< 0.2 | COc1cc(C(=O)NC[C@](O)(c2cc3c(c(-c4c(Cl)ccc(Cl)c4F)n2)OC[C@]3(C)C(N)=O)C(F)(F)F)cc2cn(C3CC3)nc12 [Example 1262]
< 0.2 | COc1cc(C(=O)NC[C@](O)(c2cc3c(c(-c4c(F)ccc(F)c4F)n2)OC[C@]3(C)C(N)=O)C2CC2)cc2cn(C3CC3)nc12 [Example 1274]
< 0.2 | COc1cc(C(=O)NC[C@](O)(c2cc3c(c(-c4c(F)ccc(F)c4Cl)n2)OC[C@]3(C)C(N)=O)C(F)(F)F)cc2cn(C3CC3)nc12 [Example 1244]

Same assay, conditions: human respiratory syncytial virus, genotype A “Long” strain RSV, MOI 0.1, CPE protection, read-out: Human RSV-A (“Long”)

Structure (SMILES) | EC50 [µM]
COc1cc(C(=O)NC[C@](O)(c2cc3c(c(-c4ccc(F)cc4)n2)OC[C@@]3(CF)C(N)=O)C(F)(F)F)cc2cccnc12 [Example 282] | > 0.2
C[C@]1(C(N)=O)COc2c1cc([C@@](O)(CNC(=O)c1ccc3cc[nH]c3c1)C(F)(F)F)nc2-c1ccc(F)cc1 [Example 196] | > 0.2
COc1cc(C(=O)NC[C@](O)(c2cc3c(c(-c4ccc(F)cc4)n2)OC[C@]3(C(N)=O)C2CC2)C(F)(F)F)cc2cc(C(F)(F)F)cnc12 [Example 264] | > 0.2
COc1cc(C(=O)NC[C@@](O)(c2cc3c(c(-c4ccc(F)c(C)c4)n2)OC[C@]3(C)C(N)=O)C(F)(F)F)cc2cn(C3CC3)nc12 [Example 635] | > 0.2
C[C@]1(C(N)=O)COc2c1cc([C@@](O)(CNC(=O)c1cc(Cl)cc3[nH]ncc13)C(F)(F)F)nc2-c1ccc(F)cc1 [Example 414] | > 0.2
COc1ccc(C(=O)NC[C@](O)(c2cc3c(c(-c4ccc(F)cc4)n2)OC[C@]3(C)C(N)=O)C(F)(F)F)cc1C [Example 423] | > 0.2
C[C@@H](O)COc1ccc(C(=O)NC[C@](O)(c2cc3c(c(-c4ccc(F)cc4)n2)OC[C@]3(C(N)=O)C2CC2)C(F)(F)F)cc1OC1CC1 [Example 279] | > 0.2
C[C@]1(C(N)=O)COc2c1cc([C@@](O)(CNC(=O)c1cnn(-c3ccc(F)cc3)c1)C(F)(F)F)nc2-c1ccc(F)cc1 [Example 451] | > 0.2
Cn1cc(C(=O)NC[C@](O)(c2cc3c(c(-c4ccc(F)cc4)n2)OC[C@]3(C)C(N)=O)C(F)(F)F)c2ccccc21 [Example 373] | > 0.2
C[C@]1(C(N)=O)COc2c1cc([C@@](O)(CNC(=O)c1cc[nH]c1)C(F)(F)F)nc2-c1ccc(F)cc1 [Example 349] | > 0.2
C[C@]1(C(N)=O)COc2c1cc([C@@](O)(CNC(=O)c1c[nH]c3cccnc13)C(F)(F)F)nc2-c1ccc(F)cc1 [Example 383] | > 0.2
COc1cc(C(=O)NC[C@](O)(c2cc3c(c(-c4ccc(F)cc4)n2)OC[C@]3(C(N)=O)C2CC2)C(F)(F)F)cc2cn(C(F)F)nc12 [Example 266] | > 0.2
Cc1oncc1C(=O)NC[C@](O)(c1cc2c(c(-c3ccc(F)cc3)n1)OC[C@]2(C)C(N)=O)C(F)(F)F [Example 356] | > 0.2
C[C@]1(C(N)=O)COc2c1cc([C@@](O)(CNC(=O)c1n[nH]c3ncccc13)C(F)(F)F)nc2-c1ccc(F)cc1 [Example 393] | > 0.2
C[C@]1(C(N)=O)COc2c1cc([C@@](O)(CNC(=O)c1ccc3nnnn3c1)C(F)(F)F)nc2-c1ccc(F)cc1 [Example 110] | > 0.2
CC(C)(O)c1cn2cc(C(=O)NC[C@](O)(c3cc4c(c(-c5ccc(F)cc5)n3)OC[C@]4(C)C(N)=O)C(F)(F)F)cc(F)c2n1 [Example 66] | > 0.2
CC[C@]1(C(N)=O)COc2c1cc([C@@](O)(CNC(=O)c1cc(OC)c3nc(C)c(Cl)cc3c1)C(F)(F)F)nc2-c1ccc(F)cc1 [Example 238] | > 0.2
C[C@]1(C(N)=O)COc2c1cc([C@@](O)(CNC(=O)c1ccc3nc(C4CC4)sc3c1)C(F)(F)F)nc2-c1ccc(F)c(Cl)c1 [Example 18] | < 0.2
C[C@]1(C(N)=O)COc2c1cc([C@@](O)(CNC(=O)c1ccn3cc(C4CC4)nc3c1)C(F)(F)F)nc2-c1ccc(F)cc1 [Example 33] | > 0.2

Results, then the molecule that gave them:

EC50 [µM] | Structure (SMILES)
< 0.2 | C[C@]1(C(N)=O)COc2c1cc([C@@](O)(CNC(=O)c1cc(Br)c3[nH]cnc3c1)C(F)(F)F)nc2-c1ccc(F)cc1 [Example 195]
< 0.2 | C[C@]1(C(N)=O)COc2c1cc([C@@](O)(CNC(=O)c1ccc3ncc(C(F)(F)F)cc3c1)C(F)(F)F)nc2-c1ccc(F)cc1 [Example 69]
< 0.2 | Cc1cnc2c(NC(=O)N(C)C3CC3)cc(C(=O)NC[C@](O)(c3cc4c(c(-c5ccc(F)cc5)n3)OC[C@]4(C)C(N)=O)C(F)(F)F)cc2c1 [Example 328]
< 0.2 | C[C@]1(C(N)=O)COc2c1cc([C@@](O)(CNC(=O)c1ccn3nc(C4CC4)cc3c1)C(F)(F)F)nc2-c1ccc(F)c(Cl)c1 [Example 67]
< 0.2 | COc1cc(C(=O)NC[C@](O)(c2cc3c(c(-c4ccc(F)cc4)n2)OC[C@]3(C(N)=O)C2CC2)C(F)(F)F)cc2cc(Cl)c(C)nc12 [Example 275]
< 0.2 | COc1cc(C(=O)NC[C@](O)(c2cc3c(c(-c4ccc(F)cc4)n2)OCC3(CF)C(N)=O)C(F)(F)F)cc2cn(C(F)F)nc12 (some centres unmarked) [Example 288]
< 0.2 | Cc1nn(-c2ccccc2)cc1C(=O)NC[C@](O)(c1cc2c(c(-c3ccc(F)cc3)n1)OC[C@]2(C)C(N)=O)C(F)(F)F [Example 452]
< 0.2 | C[C@]1(C(N)=O)COc2c1cc([C@@](O)(CNC(=O)c1ccnc3cc[nH]c13)C(F)(F)F)nc2-c1ccc2c(c1)OC(F)(F)O2 [Example 701]
< 0.2 | C[C@]1(C(N)=O)COc2c1cc([C@@](O)(CNC(=O)c1cc(Br)c3nc(N)oc3c1)C(F)(F)F)nc2-c1ccc(F)cc1 [Example 203]
< 0.2 | Cc1cnc2c(NC(=O)NC34CC(O)(C3)C4)cc(C(=O)NC[C@](O)(c3cc4c(c(-c5ccc(F)cc5)n3)OC[C@]4(C)C(N)=O)C(F)(F)F)cc2c1 [Example 227]
< 0.2 | Cc1cc(C(=O)NC[C@](O)(c2cc3c(c(-c4ccc(F)cc4)n2)OC[C@]3(C)C(N)=O)C(F)(F)F)cc2cn[nH]c12 [Example 122]
< 0.2 | NC(=O)[C@@]1(CF)COc2c1cc([C@@](O)(CNC(=O)c1cc(F)c3nc(N)sc3c1)C(F)(F)F)nc2-c1ccc(F)cc1 [Example 290]
